According to patent US20050075393A1, “Carboxylic acid compound cyclopropane ring” (priority 2000, published 2005):

Tested on: hippocampal neurotransmission (PS amplitude, dentate granule cells, perforant path stimulation)
Assay: Population spike (PS) recording in dentate gyrus of anesthetized mice (LTP-like potentiation of synaptic transmission)
Assay type: in vivo
Conditions: mouse
Description: For population spike (PS) recording, the head of a mouse was fixed with ear bars under urethane anesthesia (an initial dose of 1.2 g/kg, i.p. followed by supplemental injections of 0.2-0.6 g/kg as needed), and a glass recording electrode was placed in the cell body layer of dentate granule cells (coordinates=2.0-2.5 mm posterior to bregma, 1.0-1.5 mm lateral to the midline, 1.5-2.0 mm ventral to the brain surface). Initial responses were obtained using cathodal stimulation (7.0-9.0 V, 0.1 Hz, 0.1 ms in duration) of the perforant path. After both stimulating and recording electrodes were properly positioned and population spike was obtained, the baseline was allowed to stabilize for 30 min prior to baseline recording. Body temperature was maintained at 37° C. Compound A was dissolved in 50% polyethylene glycol, diluted with water, and injected intraperitoneally (i.p.) at concentrations of 0.1 mg/kg, 1 mg/kg and 10 mg/kg, respectively. After the intraperitoneal administration of Compound A, the PS amplitude was measured every 5 minutes, and the proportion in percentage of the obtained value to the PS amplitude at the time of the start of i.p. administration of Compound A (% of basal PS amplitude) was calculated.

`CCCCCC1CC1CC1CC1CCCCCCCC(=O)O` (stereo not drawn) [Compound A, 8-(2-((2-pentylcyclopropan-1-yl)methyl)cyclopropyl)octanoic acid] was tested, and the “time after injection at which potentiation of PS amplitude is still evident” value (1 mg/kg i.p.) was ≥ 120 min, the “PS amplitude, percent of basal PS amplitude” value (1 mg/kg i.p., urethane anesthesia) was “approximately 200%” and the “potentiation of PS amplitude” value (10 mg/kg i.p., compared with 1 mg/kg) was “much lesser potentiation”.
